Source: the supplement of paper PMC13380429

Experiments:
Settings in all cases: 72 h
Caco-2 [1] = test: cell viability relative to DMSO; higher = less toxic
U2OS [2] = test: as above
HepG2 [3] = test: as above
Calu-3 [4] = test: as above
Vero E6 [5] = test: as above
Caco-2 [6] = test: drug sensitivity score (DSS) for viability; higher = more toxic; extreme values may be limits of the assay
U2OS [7] = test: as above
HepG2 [8] = test: as above
Calu-3 [9] = test: as above
Vero E6 [10] = test: as above
Calu-3 [11] = test: relative viability EC50 (midpoint between 100% and the lowest measured viability); higher = less toxic
U2OS [12] = test: as above
HepG2 [13] = test: as above
Vero E6 [14] = test: as above

SMILES | cell viability (Caco-2 [1]; 1 nM) [%] | cell viability (Caco-2 [1]; 10 nM) [%] | cell viability (Caco-2 [1]; 100 nM) [%] | cell viability (Caco-2 [1]; 1000 nM) [%] | cell viability (Caco-2 [1]; 10000 nM) [%] | cell viability (U2OS [2]; 1 nM) [%] | cell viability (U2OS [2]; 10 nM) [%] | cell viability (U2OS [2]; 100 nM) [%] | cell viability (U2OS [2]; 1000 nM) [%] | cell viability (U2OS [2]; 10000 nM) [%] | cell viability (HepG2 [3]; 1 nM) [%] | cell viability (HepG2 [3]; 10 nM) [%] | cell viability (HepG2 [3]; 100 nM) [%] | cell viability (HepG2 [3]; 1000 nM) [%] | cell viability (HepG2 [3]; 10000 nM) [%] | cell viability (Calu-3 [4]; 1 nM) [%] | cell viability (Calu-3 [4]; 10 nM) [%] | cell viability (Calu-3 [4]; 100 nM) [%] | cell viability (Calu-3 [4]; 1000 nM) [%] | cell viability (Calu-3 [4]; 10000 nM) [%] | cell viability (Vero E6 [5]; 1 nM) [%] | cell viability (Vero E6 [5]; 10 nM) [%] | cell viability (Vero E6 [5]; 100 nM) [%] | cell viability (Vero E6 [5]; 1000 nM) [%] | cell viability (Vero E6 [5]; 10000 nM) [%] | drug sensitivity score (Caco-2 [6]) | drug sensitivity score (U2OS [7]) | drug sensitivity score (HepG2 [8]) | drug sensitivity score (Calu-3 [9]) | drug sensitivity score (Vero E6 [10]) | relative viability EC50 (Calu-3 [11]) [µM] | relative viability EC50 (U2OS [12]) [µM] | relative viability EC50 (HepG2 [13]) [µM] | relative viability EC50 (Vero E6 [14]) [µM]
CN1CCN(c2ccc(Nc3ncc4cc(C#N)c(=O)n(C5CCCC5)c4n3)cc2)CC1 | 98 | 93.9 | 101 | 92.3 | 74.9 | 100 | 98 | 102 | 98.3 | 70 | 99.8 | 99.7 | 102 | 88.8 | 52.9 | 105 | 103 | 98.9 | 87.9 | 111 | 105 | 107 | 107 | 99.1 | 58.1 | 2 | 1.5 | 4.2 | 0 | 2.2 | > 10 | – | – | –
Oc1ccc(Cl)cc1Cc1cc(Cl)ccc1O [dichlorophen] | 107 | 88.9 | 108 | 70.1 | 54.6 | 101 | 95.1 | 96.7 | 99.7 | 93.5 | 105 | 89.4 | 96.9 | 97.9 | 76.6 | – | – | – | – | – | 106 | 99.4 | 104 | 97.5 | 86.7 | 5.9 | 0 | 1.1 | – | 0.3 | – | > 10 | > 10 | > 10
CC(C)Cc1ccc([C@@H](C)C(=O)NS(C)(=O)=O)cc1 [reparixin] | – | – | – | – | – | – | – | – | – | – | – | – | – | – | – | – | – | – | – | – | – | – | – | – | – | – | 0 | 0 | 0 | 0 | – | – | – | –
Nc1ccc2ncnc(NCCc3ccc(Oc4ccccc4)cc3)c2c1 [EVP4593] | 104 | 96.9 | 88 | 78.4 | 74.5 | 103 | 96.3 | 94.7 | 67.4 | 64.5 | 109 | 109 | 78.1 | 20.2 | 19.4 | 106 | 98.9 | 97.7 | 92.1 | 86.5 | 93.5 | 90.2 | 91.1 | 73.3 | 77 | 4.3 | 6.3 | 18 | 0.3 | 4.4 | > 10 | – | 0.149 | –
Clc1ccc(C2(c3ccc(-c4cn[nH]c4)cc3)CCNCC2)cc1 [AT7867] | 103 | 93.3 | 105 | 98.2 | 73.9 | 103 | 95.1 | 94.9 | 90.3 | 34.8 | 102 | 101 | 97.6 | 84.9 | 54.2 | 99.7 | 98.7 | 110 | 132 | 79.5 | 100 | 97 | 97.5 | 84.9 | 39.8 | 1.3 | 5.2 | 4.4 | 0.2 | 5.6 | > 10 | 2 | – | 1.55
CS(=O)(=O)c1ccc(-c2cn3ccccc3n2)cc1 [zolimidine] | – | – | – | – | – | 100 | 94.7 | 94.8 | 93.5 | 95.9 | 117 | 104 | 87.3 | 98.6 | 93.8 | – | – | – | – | – | 107 | 107 | 105 | 94.4 | 88 | – | 0 | 0 | – | 0.3 | – | > 10 | > 10 | > 10
Cc1cc(C(=O)Nc2nc3cccc(Cl)c3n2[C@@H]2CCCCN(C(=O)/C=C/CN(C)C)C2)ccn1 [EGF816] | 95.5 | 94.3 | 98.1 | 93.7 | 72.3 | 101 | 98.9 | 99.3 | 98.4 | 77.3 | 107 | 100 | 96 | 94.5 | 32.1 | 102 | 95.9 | 86.9 | 51.6 | 24.6 | 104 | 106 | 102 | 82.1 | 36.8 | 2.1 | 1 | 4.6 | 10.8 | 6.2 | 0.512 | > 10 | 2.5 | 1.45
C[C@H](Cc1ccc(O)c(O)c1)[C@@H](C)Cc1ccc(O)c(O)c1 [masoprocol] | 88.3 | 83.1 | 72.1 | 78.6 | 55.5 | 92.1 | 104 | 97.7 | 97.8 | 95.9 | 98.3 | 94 | 94.5 | 101 | 97.1 | 95.5 | 108 | 93.4 | 93.6 | 93 | 102 | 91.6 | 88.6 | 91.5 | 81.3 | 9.6 | 0 | 0 | 0 | 1.4 | > 10 | > 10 | > 10 | > 10
O=C(Nc1cccnc1)N1CCC(Cc2cccc(Oc3ccc(C(F)(F)F)cn3)c2)CC1 [PF-3845] | 99.7 | 103 | 90.3 | 92.4 | 66.9 | 97.3 | 107 | 101 | 98.5 | 82.7 | 109 | 102 | 98.3 | 101 | 32.7 | 103 | 105 | 104 | 102 | 79.1 | 103 | 96.8 | 89.9 | 101 | 78.7 | 2.4 | 0.6 | 3.6 | 0.5 | 0.6 | > 10 | > 10 | 3.25 | > 10
Cc1sc2c(c1C)C(c1ccc(Cl)cc1)=N[C@@H](CC(=O)Nc1ccc(O)cc1)c1nnc(C)n1-2 [OTX015] | 105 | 94.5 | 95.6 | 84.6 | 53.1 | 99.7 | 102 | 89.3 | 62.9 | 38.8 | 106 | 110 | 85.1 | 47.4 | 24.9 | 109 | 113 | 108 | 82.3 | 55.9 | 97.5 | 92.7 | 84.5 | 21.8 | 8 | 4.3 | 8.2 | 11.6 | 4.7 | 16.3 | – | 0.592 | 0.434 | 0.298
CSCC[C@H](NC(=O)[C@H](CC(C)C)NC(=O)CNC(=O)[C@H](Cc1ccccc1)NC(=O)[C@H](Cc1ccccc1)NC(=O)[C@H](CCC(N)=O)NC(=O)[C@H](CCC(N)=O)NC(=O)[C@@H]1CCCN1C(=O)[C@H](CCCCN)NC(=O)[C@@H]1CCCN1C(=O)[C@@H](N)CCCN=C(N)N)C(N)=O [substance-P] | – | – | – | – | – | 99.5 | 97.2 | 96.2 | 96.7 | 98.2 | 88.1 | 96.3 | 100 | 107 | 105 | 103 | 98.4 | 102 | 96.5 | 95.6 | 102 | 97.5 | 103 | 102 | 99 | – | 0 | 0 | 0 | 0 | > 10 | > 10 | > 10 | > 10
N[C@@H](Cc1cc(I)c(Oc2ccc(O)c(I)c2)c(I)c1)C(=O)O [liothyronine] | 93.8 | 98.5 | 96.7 | 98.1 | 96.5 | 97.1 | 97.5 | 93.4 | 96 | 93.5 | 102 | 104 | 107 | 96.6 | – | 98.9 | 96.8 | 92.5 | 93.5 | 95 | 104 | 92.4 | 92.6 | 88.6 | 91.3 | 0 | 0 | 0 | 0 | 1 | – | – | – | –
CC[C@H](C)C(=O)O[C@H]1C[C@H](O)C=C2C=C[C@H](C)[C@H](CC[C@@H](O)C[C@@H](O)CC(=O)O)[C@H]21 [PRAVASTATIN SODIUM] | – | – | – | – | – | 97.7 | […] | 94.2 | 101 | 98.5 | 112 | 105 | 93 | 86.1 | 112 | 98.2 | 93.8 | 93.3 | 98.2 | 95.2 | 98.9 | 109 | 107 | 96.4 | 105 | – | 0 | 0 | 0 | 0 | […] | […] | […] | […]
NC(=S)N/N=C/c1coc2ccccc2c1=O.[Cl][Cu][Cl] [FPA-124] | 106 | 103 | 96.1 | 104 | 70.4 | 105 | 99.1 | 101 | 97.3 | 99.8 | 94.5 | 101 | 97.5 | 109 | 95.3 | 104 | 103 | 102 | 99 | 106 | – | – | – | – | – | 1 | 0 | 0 | 0 | – | > 10 | > 10 | > 10 | –
CC(C)(O)[C@@H]1[C@H]2OC(=O)[C@@H]1[C@]1(O)C[C@H]3O[C@]34C(=O)O[C@H]2[C@]14C [picrotin] | – | – | – | – | – | – | – | – | – | – | – | – | – | – | – | – | – | – | – | – | – | – | – | – | – | – | 0 | 0 | 0 | – | – | – | – | –
O=C(N[C@H](CO)[C@H](O)c1ccc([N+](=O)[O-])cc1)C(Cl)Cl [chloramphenicol] | – | – | – | – | – | – | – | – | – | – | – | – | – | – | – | – | – | – | – | – | – | – | – | – | – | – | 0 | 1.1 | 0 | 0 | – | – | – | –
O=C(O)Cc1ccccc1Nc1c(Cl)cccc1Cl [diclofenac] | – | – | – | – | – | – | – | – | – | – | – | – | – | – | – | – | – | – | – | – | – | – | – | – | – | – | 0 | – | 0 | 0 | – | – | – | –
COc1ccc(C(=O)N2CCCC2=O)cc1 [aniracetam] | – | – | – | – | – | – | – | – | – | – | – | – | – | – | – | – | – | – | – | – | – | – | – | – | – | – | 0 | 0 | 0 | 0 | – | – | – | –
